Measurements as given in patent publication EP0732331A1, “Novel benzothiophene compounds and methods for inhibiting lipoxygenase and leukotrienes” (ELI LILLY AND COMPANY, priority 1995, dated 1996).
Read-outs that look alike come from different tables or passages of the source.

What was measured:
[1] = tested on: production of leukotriene B4 (LTB4); assay: Inhibition of Eicosanoid Production by Plasma-depleted Blood: LTB4; format: cell-based; details: Homo sapiens, read-out: LTB4
Description: (§1) Compounds are evaluated for their ability to inhibit production of leukotriene B4 (LTB4) and thromboxane B2 (TxB2) upon stimulation of human plasma-depleted blood with formyl-methionyl-leucyl-phenylalanine (FMLP) and thrombin. LTB4 is produced by neutrophils and TxB2 by platelets stimulated at their respective receptors with FMLP and thrombin. The assay is carried out in 1 ml deep well polypropylene 96-well plates (Beckman). For the test, ten ml of blood is collected in EDTA at a final concentration of 1.5 mg/ml. Then, 40 ml glucose phosphate buffer containing 0.1% gelatin is added and the suspension centrifuged at 900 g for 10 minutes at room temperature. The supernatant is discarded and the cells washed once with 50 ml buffer before resuspending them in 50 ml Krebs-Ringers-Henseleit Buffer containing 0.1% gelatin, 1 mM CaCl2, 1.1 mM MgCl2 (KRH buffer). Working solutions of test compounds are made by dissolving the material in DMSO at 10 mM and diluting with appropriate amounts of KRH buffer. An agonist solution is made containing 1 µM FMLP (sigma) and 10 units/ml of thrombin in KRH buffer (Enzyme Research Labs). The blood cell suspension is first warmed to 37° C for 5 minutes and then mixed with cytochalasin B (sigma) at a final concentration of 2 µg/ml. In each well, 200 µl of the compound solution is incubated with 250 µl of the blood cell, cytochalasin B suspension at 37° C for 10 min. Stimulation of eicosanoid production is begun by adding 50 µl of the agonist solution. The mixture is then incubated for 2 min. before stopping the reaction by adding 50 µl of a solution containing 275 mM EDTA, 110 µM indomethacin (sigma) and 110 µM of the 5-lipoxygenase inhibitor, N-hydroxy-N-[3-[2-(2-propynylthio)phenyl]-2-propenyl]urea. Subsequently, the plate is centrifuged and an aliquot of the supernatant fluid removed for analysis of the eicosanoid content. The amount of LTB4 and TxB2 produced is determined by the use of a competitive enzyme immunoassay using commercial reagents from Cayman Chemical.

[2] = tested on: production of thromboxane B2 (TxB2); assay: Inhibition of Eicosanoid Production by Plasma-depleted Blood: TxB2; format: cell-based; details: Homo sapiens, read-out: TxB2
Description: as §1

[3] = tested on: production of LTC4 by the cytokine dependent mast cell line MCII; assay: MCII Mast Cell LTC4 Assay; format: cell-based, mouse; details: read-out: LTC4
Description: This assay measures the production of LTC4 by the cytokine dependent mast cell line MCII, stimulated by cross linking the high affinity Fc receptor for IgE (FcεR1).
The bone marrow derived, cytokine dependent mouse mast cell line MCII (Lilly Research Laboratories) is maintained in log phase growth in complete Dulbecco's' Modified Eagles Medium (GIBCO BRL) supplemented with fetal bovine serum (Hyclone), gentamicin, penicillin and streptomycin (GIBCO BRL) and using concanavalin A (ICN ImmunoBiologicals) induced culture supernatants from the mouse helper T cell clone D10.G4 (ATCC TIB 224) as a source of mast cell growth factors. The MCII cells are passively sensitized with mouse monoclonal IgE by incubation with an appropriate dilution of IgEL b4 (ATCC TIB 141) antibody ascites at 37° C for 60 minutes and then washed with Hank's Balanced Salt Solution (GIBCO BRL) to remove unbound IgE. The sensitized cells are then preincubated with drug in complete media for 10 minutes at 37° C in 96 well polypropylene plates (Costar). Each drug concentration is tested in triplicate at half log dilutions. The drug vehicle is dimethyl sulfoxide which is present at a final concentration of 0.32% in all wells.
There are 40,000 MCII cells per well in a final volume of 200 µl complete medium. The stimulated cells are incubated at 37° C for 10 minutes and then LTC4 production is stopped by addition of 25 µl of 180 mM EDTA to chelate extracellular Ca^++.
The amount of LTC4 produced is determined in a competitive enzyme immunoassay (EIA) using commercial reagents purchased from Cayman Chemical Co. In the EIA, free LTC4 in the sample competes with enzyme conjugated LTC4 for binding to immobilized anti-LTC4 antibody. The enzyme conjugated to LTC4 is acetylcholinesterase and Elman's reagent is the substrate for the enzyme. The concentration of LTC4 in the unknown sample is determined using a 4-parameter quadratic analysis of a standard curve generated by measuring the optical density resulting from the addition of known amounts of LTC4 to the EIA.
The positive control on each plate is stimulated MCII cells with dimethyl sulfoxide vehicle alone and the negative control is the same reaction mixture without cells. The background negative control value is subtracted from experimental and positive control values and the data are reported as percent of positive control.

MCII cells = assay: MCII Mast Cell Toxicity Assay (XTT); format: cell-based; details: Mus musculus, read-out: Toxicity
Description: This toxicity assay is run in parallel with the MCII mast cell LTC4 assay and serves as an indicator of compound effects on the viability and metabolic activity of the MCII cells. This "toxicity" assay is based on the ability of dehydrogenase enzymes present in viable metabolically active cells to bioreduce the tetrazolium salt XTT yielding a colored, water soluble formazan product. (see, Roehm et al.) "An improved colorimetric assay for cell proliferation and viability utilzing the tetrazolium salt XTT. J. Immunol. Methods 142:257-65 (1991).
A duplicate polystyrene 96-well tissue culture plate (Costar) is set up with sensitized MCII cells, EM95 ascites, media and dilutions of the test compound as described above. The complete media is supplemented with concanavalin A induced culture supernatants from the mouse helper T cell clone D10.G4, as a source of mast cell growth factors.
Wells of the toxicity assay plate are pulsed with 25 µl XTT (Sigma) plus phenazine methosulfate (Aldrich) giving a final concentration of 0.2 mg/ml XTT and 25 µM phenazine methosulfate. The plates are incubated at 37° C in 10% CO2 for 4-12 hours and then production of the XTT formazan product determined by measuring the optical density of the wells at a wavelength of 450 nm. The positive control on each plate is stimulated MCII cells with dimethyl sulfoxide vehicle alone and the negative control is the same reaction mixture without cells. The background negative control value is subtracted from experimental and positive control values and the data are reported as percent of positive control.

cPLA2 = target: T1, cPLA2 (Homo sapiens, UniProt P47712); assay: Chromogenic cPLA2 enzyme assay; format: biochemical; details: C-PLA2 Enzyme
T1 sequence (P47712 1-749): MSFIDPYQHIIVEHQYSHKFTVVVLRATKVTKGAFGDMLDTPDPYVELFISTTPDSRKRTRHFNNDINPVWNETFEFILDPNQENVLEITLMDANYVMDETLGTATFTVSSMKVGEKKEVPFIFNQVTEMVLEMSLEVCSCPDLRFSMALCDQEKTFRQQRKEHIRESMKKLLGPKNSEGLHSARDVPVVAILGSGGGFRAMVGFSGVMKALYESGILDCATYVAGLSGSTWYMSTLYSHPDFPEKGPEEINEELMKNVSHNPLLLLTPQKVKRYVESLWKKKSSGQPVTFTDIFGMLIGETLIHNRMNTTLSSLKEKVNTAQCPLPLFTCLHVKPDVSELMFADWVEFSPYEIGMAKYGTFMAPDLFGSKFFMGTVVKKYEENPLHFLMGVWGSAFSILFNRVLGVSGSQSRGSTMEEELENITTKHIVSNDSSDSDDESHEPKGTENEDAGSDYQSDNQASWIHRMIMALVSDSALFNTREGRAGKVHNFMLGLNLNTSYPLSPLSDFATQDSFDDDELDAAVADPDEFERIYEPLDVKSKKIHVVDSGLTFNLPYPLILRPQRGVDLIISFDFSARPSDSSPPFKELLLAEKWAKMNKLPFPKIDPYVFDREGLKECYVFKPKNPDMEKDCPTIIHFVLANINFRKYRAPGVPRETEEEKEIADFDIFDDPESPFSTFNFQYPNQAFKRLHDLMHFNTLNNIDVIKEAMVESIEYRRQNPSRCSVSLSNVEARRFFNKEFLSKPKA

cytosolic 5-lipoxygenase = target: T2, cytosolic 5-lipoxygenase (Homo sapiens, UniProt P09917); assay: 5-Lipoxygenase (5-LPO) Assay; format: biochemical; details: inhibition of leukotriene B4; human neutrophil 20,000 x g supernatant; 5 minutes at 37°C
T2 construct: Cells are disrupted with sonication and the cytosolic fraction obtained by centrifugation at 20,000 x g; from tissue; host or cells: human peripheral blood neutrophils, 20,000 x g cytosolic supernatant
T2 sequence (P09917 1-674): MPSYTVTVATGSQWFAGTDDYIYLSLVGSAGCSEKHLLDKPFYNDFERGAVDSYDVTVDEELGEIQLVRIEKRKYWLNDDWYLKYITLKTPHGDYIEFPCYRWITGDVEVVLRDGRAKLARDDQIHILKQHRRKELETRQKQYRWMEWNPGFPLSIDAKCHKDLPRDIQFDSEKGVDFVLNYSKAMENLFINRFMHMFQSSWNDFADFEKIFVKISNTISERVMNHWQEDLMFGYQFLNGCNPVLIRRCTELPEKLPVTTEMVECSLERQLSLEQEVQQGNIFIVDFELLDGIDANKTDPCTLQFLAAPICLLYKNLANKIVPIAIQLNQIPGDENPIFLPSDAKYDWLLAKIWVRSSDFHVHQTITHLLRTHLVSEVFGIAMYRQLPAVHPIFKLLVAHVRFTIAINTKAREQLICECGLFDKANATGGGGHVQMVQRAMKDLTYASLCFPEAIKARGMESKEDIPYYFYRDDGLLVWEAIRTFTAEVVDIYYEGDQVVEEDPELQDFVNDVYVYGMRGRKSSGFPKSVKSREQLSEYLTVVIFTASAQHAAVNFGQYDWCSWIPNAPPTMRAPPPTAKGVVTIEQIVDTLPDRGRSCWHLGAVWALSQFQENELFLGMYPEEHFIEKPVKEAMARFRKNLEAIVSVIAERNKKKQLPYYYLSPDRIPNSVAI
Description: To determine the effect of compounds on 5-lipoxygenase activity, peripheral blood neutrophils are separated by density centrifugation as described (Marder et al., Prostaglandins Leukot. and Essent. Fatty Acids 46 , 265-270, 1992) and the cytosolic 5-lipoxygenase is prepared from isolated neutrophils according to a modification of Carter et al., (J. Pharmacol. Exp. Ther. 256 , 929-937 (1991)). Briefly, neutrophils are washed twice in buffer (in millimolar: PIPES, 10; BES, 10; and EDTA, 1; pH 6.8) and diluted to 2.5 x 10^7 cells/ml. Cells are disrupted with sonication and the cytosolic fraction obtained by centrifugation at 20,000 x g for 20 min. at 4°C. The resultant supernatant containing the cytosolic 5-lipoxygenase activity is stored frozen at -70°C prior to use. Compounds are evaluated for 5-lipoxygenase inhibitory activity. Varying concentration of compounds in 200 ml aliquots containing 50 ml of human 20,000 x g supernatant in assay buffer (in millimolar: PIPES, 10; BES, 10; EDTA, 1; NaCl, 100; ATP, 1.56; and CaCl2,, 2.5; pH 6.8) containing 3.0 mM AA are used. The reaction proceeds for 5 minutes at 37°C and is terminated upon the addition of 50 ml EDTA (250 mM). The percent inhibition of leukotriene B4 is determined for each concentration of test compound as compared to vehicle (containing no compound) control. […] Leukotriene B4 is determined by EIA.

[4] = Plasma DPLTD Blood, stimulated with FMLP and thrombin
[5] = MCII Mast Cell, IgE-sensitized, stimulated with anti-mouse IgE EM95
[6] = MCII Mast Cell, XTT reduction, 4-12 hours

## O=C(c1ccccc1)c1c(-c2ccc(O)cc2)sc2cc(O)ccc12 [Compound A]
[1]
  IC50: 500 nM
[2]
  IC50: 4900 nM
[3]; Mus musculus, Mast cell
  IC50: 7100 ± 500 nM
MCII cells; Mast cell
  IC50: 300 nM

## Oc1ccc(-c2cc3ccc(O)cc3s2)cc1 [Compound B]
[1]; [4]
  IC50: 800 nM
[2]; [4]
  IC50: 3300 nM
[3]; [5]
  IC50: 700 nM
cPLA2
  IC50: > 200000 nM
MCII cells; [6]
  IC50: < 10000 nM

## COc1ccc(C(=O)c2c(-c3ccc(OC)cc3)sc3cc(OC)ccc23)cc1 [Compound C]
Cytosolic 5-lipoxygenase
  IC50: > 10000 nM
[1]; [4]
  IC50: 1500 ± 400 nM
[2]; [4]
  IC50: 2000 ± 600 nM
[3]; [5]
  IC50: 6700 ± 3000 nM

## O=C(c1ccc(O)cc1)c1c(-c2ccc(O)cc2)sc2cc(O)ccc12 [Compound D]
[1]
  IC50: 1600 nM
[2]
  IC50: > 9800 nM

## O=C(c1ccc(-c2ccccc2)cc1)c1c(-c2ccc(O)cc2)sc2cc(O)ccc12 [Example 1]
[1]; [4]
  IC50: 2200 ± 400 nM
[2]; [4]
  IC50: 2400 ± 1200 nM
[3]; [5]
  IC50: 4400 nM
MCII cells; [6]
  IC50: > 10000 nM

## O=C(c1cccc2ccccc12)c1c(-c2ccc(O)cc2)sc2cc(O)ccc12 [Example 2, 6-hydroxyphenyl-2-(p-hydroxyphenyl)-(benzo(B)thien-3-yl)(α-napthyl)methanone]
[1]; [4]
  IC50: 200 ± 100 nM
[2]; [4]
  IC50: 4900 ± 2400 nM
[3]; [5]
  IC50: 500 ± 200 nM
cPLA2
  IC50: > 200000 nM
MCII cells; [6]
  IC50: > 10000 nM

## O=C(c1ccc2ccccc2c1)c1c(-c2ccc(O)cc2)sc2cc(O)ccc12 [Example 3, 6-hydroxyphenyl-2-(p-hydroxyphenyl)-(benzo(B)thien-3-yl)(β-napthyl)methanone]
[1]; [4]
  IC50: 200 nM
[2]; [4]
  IC50: 1400 nM
[3]; [5]
  IC50: 3900 ± 1800 nM
MCII cells; [6]
  IC50: > 10000 nM

## COc1ccc(-c2sc3cc(OC)ccc3c2C(=O)c2cc(OC)c(O)c(OC)c2)cc1 [Example 7A]
[3]; Mus musculus, Mast cell
  IC50: 1500 ± 300 nM

## CC(C)(C)c1ccc(C(=O)c2c(-c3ccc(O)cc3)sc3cc(O)ccc23)cc1 [Example 8]
[3]; [5]
  IC50: 3500 ± 2100 nM

## Cc1ccc(C(=O)c2c(-c3ccc(O)cc3)sc3cc(O)ccc23)cc1 [Example 9]
[3]; Mus musculus, Mast cell
  IC50: 800 ± 500 nM

## Cc1cccc(C(=O)c2c(-c3ccc(O)cc3)sc3cc(O)ccc23)c1 [Example 10]
[3]; Mus musculus, Mast cell
  IC50: 1100 ± 200 nM

## O=C(c1cccc(O)c1)c1c(-c2ccc(O)cc2)sc2cc(O)ccc12 [Example 11]
[3]; Mus musculus, Mast cell
  IC50: 2700 nM

## CC(c1cc2ccccc2s1)N(O)C(N)=O (stereo not shown) [Zileuton, (I)-N-(1-benzo[B]thien-2-ylethyl)-N-hydroxyurea, reference compound]
[3]; Mus musculus, Mast cell
  IC50: 500 ± 300 nM
